The source made the active and inactive calls. No cut-off for these calls is given here.
Molecular target: T1, Muscarinic acetylcholine receptor M3 (Homo sapiens, UniProt P20309)
Test: Antagonist activity at human recombinant muscarinic M3 receptor expressed in CHO cells assessed as inhibition of acetylcholine-induced calcium mobilization by FLIPR assay
Assay type: functional, cell-based
Settings: not given

T1 sequence (P20309 whole entry): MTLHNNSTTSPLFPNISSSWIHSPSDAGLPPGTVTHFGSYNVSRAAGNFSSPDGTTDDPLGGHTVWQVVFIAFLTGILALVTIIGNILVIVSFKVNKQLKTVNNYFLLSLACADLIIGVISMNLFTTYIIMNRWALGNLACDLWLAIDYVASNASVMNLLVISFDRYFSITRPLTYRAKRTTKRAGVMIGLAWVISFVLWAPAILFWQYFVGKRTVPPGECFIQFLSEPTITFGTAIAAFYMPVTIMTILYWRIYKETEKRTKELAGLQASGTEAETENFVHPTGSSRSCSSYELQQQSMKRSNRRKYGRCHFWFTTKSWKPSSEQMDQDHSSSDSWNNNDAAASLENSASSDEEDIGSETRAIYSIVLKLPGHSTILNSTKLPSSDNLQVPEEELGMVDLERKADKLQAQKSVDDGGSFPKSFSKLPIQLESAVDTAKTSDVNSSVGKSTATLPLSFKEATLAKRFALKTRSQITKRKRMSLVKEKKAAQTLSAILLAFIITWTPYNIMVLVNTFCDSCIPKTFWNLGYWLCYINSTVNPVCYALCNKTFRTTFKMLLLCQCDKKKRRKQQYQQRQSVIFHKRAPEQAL

SMILES	IC50
N#Cc1ccc(C(=O)NCc2cccc(-c3cccc(CN4CCNCC4)c3)c2)cc1	79.4 nM
CC(=O)N1CCN(Cc2cccc(-c3cccc(CNC(=O)c4ccc5c(c4)OCO5)c3)c2)CC1	3980 nM
O=C(NCc1cccc(-c2cccc(CN3CCCNCC3)c2)c1)c1ccc2c(c1)OCO2	316 nM
COc1ccc(CN2CCNCC2)cc1-c1cccc(CNC(=O)c2ccc3c(c2)OCO3)c1	1260 nM
Cc1ccc(-c2cccc(CN3CCNCC3)c2)cc1CNC(=O)c1ccc2c(c1)OCO2	3160 nM
COc1ccc(-c2cccc(CNC(=O)c3ccc4c(c3)OCO4)c2)cc1CN1CCNCC1	316 nM
CN(C)c1cccc(C(=O)NCc2cccc(-c3cccc(CN4CCNCC4)c3)c2)c1	200 nM
O=C(NCc1cccc(-c2cccc(CN3CCNCC3)c2)c1)c1ccc(C(F)(F)F)cc1	631 nM
CN1CCN(Cc2cccc(C(=O)NCc3cccc(-c4cccc(CN5CCNCC5)c4)c3)c2)CC1	3.98 nM
O=C(NCc1cccc(-c2cccc(CN3CCNCC3)c2)c1)c1ccccc1C(F)(F)F	3980 nM
O=C(NCc1cccc(-c2ccc(F)c(CN3CCNCC3)c2)c1)c1ccc2c(c1)OCO2	200 nM
O=C(NCc1cccc(-c2cccc(CN3CCNCC3)c2)c1)c1cccc(F)c1	794 nM
O=C(NCc1cccc(-c2cccc(CN3CCNCC3)c2)c1)c1ccccc1Cl	1000 nM
O=C(NCc1cccc(-c2cccc(CN3CCOCC3)c2)c1)c1ccc2c(c1)OCO2	> 10000 nM
O=C(NCc1cccc(-c2cccc(CN3CCNCC3)c2)c1)Nc1ccc2c(c1)OCO2	7940 nM
CC(=O)c1cccc(C(=O)NCc2cccc(-c3cccc(CN4CCNCC4)c3)c2)c1	10 nM
Cc1c(CNC(=O)c2ccc3c(c2)OCO3)cccc1-c1cccc(CN2CCNCC2)c1	> 10000 nM
Cc1cccc(C(=O)NCc2cccc(-c3cccc(CN4CCNCC4)c3)c2)c1	251 nM
O=C(NCc1cccc(-c2cccc(CN3CCCCC3)c2)c1)c1ccc2c(c1)OCO2	6310 nM
COc1cccc(C(=O)NCc2cccc(-c3cccc(CN4CCNCC4)c3)c2)c1	79.4 nM
C[C@H]1CN(Cc2cccc(-c3cccc(CNC(=O)c4ccc5c(c4)OCO5)c3)n2)CCN1	39.8 nM
CCN1CCN(Cc2cccc(-c3cccc(CNC(=O)c4ccc5c(c4)OCO5)c3)c2)CC1	1580 nM
O=C(Nc1cccc(-c2cccc(CN3CCNCC3)c2)c1)c1ccc2c(c1)OCO2	6310 nM
O=C(NCc1cccc(-c2cccc(CN3CCNCC3)c2)c1)c1ccc(Cl)cc1	316 nM
O=C(NCc1cccc(-c2cccc(CN3CCNCC3)c2)c1)c1cccc(OC(F)(F)F)c1	501 nM
O=C(NCc1cccc(-c2cccc(CN3CCNCC3)c2)c1)c1cccc(Oc2ccccc2)c1	1260 nM
O=C(NCc1cc(-c2cccc(CN3CCNCC3)c2)ccc1F)c1ccc2c(c1)OCO2	251 nM
C[N+]1(C)CCN(Cc2cccc(-c3cccc(CNC(=O)c4ccc5c(c4)OCO5)c3)c2)CC1	2510 nM

SMILES	IC50
C[N+]1(Cc2cccc(-c3cccc(CNC(=O)c4ccc5c(c4)OCO5)c3)c2)CCNCC1	> 10000 nM
O=C(NCc1ccc(F)c(-c2cccc(CN3CCNCC3)c2)c1)c1ccc2c(c1)OCO2	6.31 nM
N#Cc1cccc(C(=O)NCc2cccc(-c3cccc(CN4CCNCC4)c3)c2)c1	50.1 nM
O=S(=O)(NCc1cccc(-c2cccc(CN3CCNCC3)c2)c1)c1ccc2c(c1)OCO2	251 nM
CS(=O)(=O)c1cccc(C(=O)NCc2cccc(-c3cccc(CN4CCNCC4)c3)c2)c1	20 nM
CC(=O)Nc1cccc(C(=O)NCc2cccc(-c3cccc(CN4CCNCC4)c3)c2)c1	200 nM
Nc1cccc(C(=O)NCc2cccc(-c3cccc(CN4CCNCC4)c3)c2)c1	2000 nM
COc1ccc(C(=O)NCc2cccc(-c3cccc(CN4CCNCC4)c3)c2)cc1	501 nM
C[C@H]1CN(Cc2cccc(-c3cccc(CNC(=O)c4ccc5c(c4)OCO5)c3)c2)CCN1	5.01 nM
O=C1CN(Cc2cccc(-c3cccc(CNC(=O)c4ccc5c(c4)OCO5)c3)c2)CCN1	> 10000 nM
CCOc1cccc(C(=O)NCc2cccc(-c3cccc(CN4CCNCC4)c3)c2)c1	10 nM
O=C(NCc1cccc(-c2cccc(CN3CCNCC3)c2)c1)c1cccc(C(F)(F)F)c1	50.1 nM
C[C@H]1CN(Cc2ccc(-c3cccc(CNC(=O)c4ccc5c(c4)OCO5)c3)s2)CCN1	501 nM
O=C(NCc1cccc(-c2cccc(C(=O)N3CCNCC3)c2)c1)c1ccc2c(c1)OCO2	5010 nM
C[C@@H]1CN(Cc2cccc(-c3cccc(CNC(=O)c4ccc5c(c4)OCO5)c3)c2)CCN1	50.1 nM
O=C(NCc1cccc(-c2cccc(CN3C[C@@H]4C[C@H]3CN4)c2)c1)c1ccc2c(c1)OCO2	79.4 nM
CC1CN(Cc2cccc(-c3cccc(CNC(=O)c4ccc5c(c4)OCO5)c3)c2)CCN1 (stereo unspecified)	10 nM
CCc1cccc(C(=O)NCc2cccc(-c3cccc(CN4CCNCC4)c3)c2)c1	316 nM
CN1CCN(Cc2cccc(-c3cccc(CNC(=O)c4ccc5c(c4)OCO5)c3)c2)CC1	501 nM
CN1CCCN(Cc2cccc(-c3cccc(CNC(=O)c4ccc5c(c4)OCO5)c3)c2)CC1	631 nM
COc1ccccc1C(=O)NCc1cccc(-c2cccc(CN3CCNCC3)c2)c1	501 nM
COc1ccc(CNC(=O)c2ccc3c(c2)OCO3)cc1-c1cccc(CN2CCNCC2)c1	31.6 nM
N#Cc1ccccc1C(=O)NCc1cccc(-c2cccc(CN3CCNCC3)c2)c1	316 nM
COC(=O)c1cccc(C(=O)NCc2cccc(-c3cccc(CN4CCNCC4)c3)c2)c1	20 nM
O=C(NCc1cccc(-c2cccc(CN3CCNCC3)c2)c1F)c1ccc2c(c1)OCO2	2510 nM
O=C(NCc1cccc(-c2cccc(CN3CCNCC3)c2)c1)c1cccc(Cl)c1	100 nM
O=C(NCc1cccc(-c2cccc(CN3CCNCC3)c2)c1)c1cccc(O)c1	2000 nM

Molecular target: T1, Muscarinic acetylcholine receptor M3
Test: Antagonist activity at human recombinant muscarinic M3 receptor expressed in CHO cells assessed as inhibition of acetylcholine-induced calcium mobilization by FLIPR based single concentration kinetic assay
Assay type: functional, cell-based
Settings: read-out: pA2 (converted)

SMILES	Kb
C[C@H]1CN(Cc2cccc(-c3cc(CNC(=O)c4cccc(CN5CCCCC5)c4)ccc3F)c2)CCN1	0.631 nM
C[C@H]1CN(Cc2cccc(-c3cc(CNC(=O)c4cccc(CN5CCCN(C)CC5)c4)ccc3F)c2)CCN1	0.251 nM
C[C@H]1CN(Cc2cccc(-c3cc(CNC(=O)c4cccc(CN(C)C)c4)ccc3F)c2)CCN1	3.16 nM
CCC[N+]1(C)CCN(Cc2cccc(C(=O)NCc3ccc(F)c(-c4cccc(CN5CCN[C@@H](C)C5)c4)c3)c2)CC1	0.1 nM
C[C@H]1CN(Cc2cccc(-c3cc(CNC(=O)c4cccc(CN5CCOCC5)c4)ccc3F)c2)CCN1	0.126 nM
C[C@H]1CN(Cc2cccc(-c3cc(CNC(=O)c4cccc(CN5CC[N+](C)(Cc6ccccc6)CC5)c4)ccc3F)c2)CCN1	0.0794 nM
C[C@H]1CN(Cc2cccc(-c3cc(CNC(=O)c4cccc(CN5CCN(CCCO)CC5)c4)ccc3F)c2)CCN1	0.0631 nM
C[C@H]1CN(Cc2cccc(-c3cc(CNC(=O)c4cccc(C[N+]5(C)CCNCC5)c4)ccc3F)c2)CCN1	3.16 nM
C[C@H]1CN(Cc2cccc(-c3cc(CNC(=O)c4cccc(CN5CC[N+](C)(C)CC5)c4)ccc3F)c2)CCN1.[I-]	0.158 nM
C[C@H]1CN(Cc2cccc(-c3cc(CNC(=O)c4cccc(CN5CCN(C=O)CC5)c4)ccc3F)c2)CCN1	0.0794 nM
C[C@H]1CN(Cc2cccc(-c3cc(CNC(=O)c4cccc(CN(C)CCCN(C)C)c4)ccc3F)c2)CCN1	0.2 nM
C[C@H]1CN(Cc2cccc(-c3cc(CNC(=O)c4cccc(CN5CC[N+]6(CCCCC6)CC5)c4)ccc3F)c2)CCN1	0.126 nM
C[C@H]1CN(Cc2cccc(-c3cc(CNC(=O)c4cccc(CN5CCN(C)CC5)c4)ccc3F)c2)CCN1	0.0316 nM

Tested on: not listed separately
Test: Permeability across artificial phospholipid membrane at pH 7.05 by HPLC
Assay type: ADME
Settings: not told, read-out: permeability

SMILES	Papp
C[C@H]1CN(Cc2cccc(-c3cc(CNC(=O)c4cccc(CN5CC[N+](C)(C)CC5)c4)ccc3F)c2)CCN1.[I-]	< 0.3 ×10⁻⁶ cm/s

Molecular target: T2, Muscarinic acetylcholine receptor M1 (Homo sapiens, UniProt P11229)
T2 sequence (P11229 whole entry): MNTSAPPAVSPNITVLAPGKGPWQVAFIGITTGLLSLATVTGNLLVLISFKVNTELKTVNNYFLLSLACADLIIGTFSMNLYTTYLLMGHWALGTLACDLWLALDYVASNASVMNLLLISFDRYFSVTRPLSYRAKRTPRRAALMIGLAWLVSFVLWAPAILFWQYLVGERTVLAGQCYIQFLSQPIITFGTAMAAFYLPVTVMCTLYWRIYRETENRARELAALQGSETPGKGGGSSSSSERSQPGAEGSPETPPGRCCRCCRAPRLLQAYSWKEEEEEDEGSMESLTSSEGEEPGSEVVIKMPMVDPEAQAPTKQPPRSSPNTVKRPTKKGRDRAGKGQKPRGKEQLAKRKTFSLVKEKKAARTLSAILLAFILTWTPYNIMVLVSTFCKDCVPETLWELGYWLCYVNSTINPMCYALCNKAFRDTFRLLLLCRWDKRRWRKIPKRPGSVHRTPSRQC
Test: Antagonist activity at human recombinant muscarinic M1 receptor expressed in CHO cells assessed as inhibition of acetylcholine-induced calcium mobilization by FLIPR assay
Assay type: functional, cell-based
Settings: read-out: pA2 (converted)

SMILES	Kb
C[C@H]1CN(Cc2cccc(-c3cc(CNC(=O)c4cccc(CC5CCNCC5)c4)ccc3F)c2)CCN1	0.2 nM

Tested on: Mus musculus
Test: Inhibition of methacholine-induced bronchoconstriction in intranasally dosed BALB/c mouse assessed as enhanced pause pretreated before methacholine challenge
Assay type: functional, organism-based
Settings: not given

SMILES	inhibition
C[C@H]1CN(Cc2cccc(-c3cc(CNC(=O)c4cccc(CC5CCNCC5)c4)ccc3F)c2)CCN1	Active

Source: ChEMBL document CHEMBL1153327, “M3 muscarinic acetylcholine receptor antagonists: SAR and optimization of bi-aryl amines” (Bioorg Med Chem Lett, 2009)
